Patent publication US20200397763A1, “PARENTERAL FORMULATION MATERIALS AND METHODS FOR 40-O-CYCLIC HYDROCARBON ESTERS AND RELATED STRUCTURES” (Biotronik AG, priority 2018, published 2020)

Columns and labels:
[1] = prior art; blood plasma; 15 mg/kg; SEQ ID NO:1 with nanoparticles; cited from earlier work
[2] = Rat intravenous PK of the EtOH / SEQ ID NO:1 formulation without nanoparticles; assay type: in vivo, Sprague-Dawley rats; settings: for AUC(0-inf): Sprague-Dawley, rat, rats, intravenous 15 mg/kg, EtOH / 20% SEQ ID NO:1 in saline, without nanoparticles, LCMS
Procedure: It is understood the concentration may be optimized according to desired dosing schemes, routes of administration, etc.
The PK studies were conducted around the formulation from Example I. Specifically, Sprague-Dawley rats were dosed intravenously at 15 mg/kg, with blood samples being collected prior to dosing, in order to establish baseline, then post dosing at set intervals up to 24 hours. Drug bioanalytical measurements were conducted by LCMS.
Results (AUCinf) reported in the prior art are from blood plasma, whereas the present results are from both plasma and whole blood. This was done to allow for direct comparison to the previous studies. Drug area under the curve versus time ((AUCinf), total drug dose exposure) was calculated accordingly.
Sirolimus (rapamycin) was used and formulated in accordance with those steps described previously at Example I. Specifically, sirolimus was combined with SEQ ID NO:1 but without nanoparticles and tested against the studies shown in the prior art, namely, sirolimus formulated with SEQ ID NO:1 but with nanoparticles.

- AUC(0-inf) ([2]; plasma): 5180 ± 130 ng·h/mL
- AUC(0-inf) ([2]; whole blood): 5060 ± 541 ng·h/mL
- difference between the AUCinf results of the current studies and the prior art ([2]; sirolimus without nanoparticles (current) versus with nanoparticles (prior art)): 20%
SMILES: CO[C@H]1C[C@@H]2CC[C@@H](C)[C@@](O)(O2)C(=O)C(=O)N2CCCC[C@H]2C(=O)O[C@H]([C@H](C)C[C@@H]2CC[C@@H](O)[C@H](OC)C2)CC(=O)[C@H](C)/C=C(\C)[C@@H](O)[C@@H](OC)C(=O)[C@H](C)C[C@H](C)/C=C/C=C/C=C/1C [Sirolimus, rapamycin]
- AUCinf [1]: 6017 ± 647 ng·h/mL
